Assay: O2 evolution from RuO2.xH2O-catalysed decomposition of H2O2 with stabilizer
Type: physicochemical
Experimental: A 50% strength aqueous solution of H2O2 (304 mg; 4.46 mmol) was added to 454 mg (4.46 mmol) of methyl pyruvate and to 535 mg (4.46 mmol) of glyoxylic methyl ester methyl hemiacetal, respectively. In the case of methyl pyruvate, a marked evolution of heat was discovered during the addition. After one hour, the H2O2/α-keto ester mixture was mixed with 1 ml of solvent and added to a suspension of 2.5 mg of RuO2.xH2O catalyst (Aldrich) in 4 ml of solvent. The suspension was introduced into a 50 ml flask which was maintained at room temperature in a water bath.
As a comparison, a suspension of 2.5 mg of RuO2.xH2O catalyst (Aldrich) in 4 ml of solvent was combined with a 50% strength aqueous solution of H2O2 (304 mg; 4.46 mmol) and 1 ml of solvent without stabilizer.
The amount of oxygen which […] the decomposition of the hydrogen peroxide was determined as a function of time using a Brooks meter, which permitted measurement of the gas flow and of the total amount of evolved gas.
The amount of oxygen is defined here as % of the maximum amount to be calculated on the basis of stoichiometry.

**Q.** Which “O2 evolution V(O2) (Vmax(O2)*100%)” value (solv. acetic acid, t 1 min) does the source give for COC(=O)C(C)=O [methyl pyruvate] here?
**A.** 0%

**Q.** What about the “O2 evolution V(O2) (Vmax(O2)*100%)” value (solv. acetic acid, t 2 min) of the same molecule?
**A.** 0%

**Q.** And the “O2 evolution V(O2) (Vmax(O2)*100%)” value (solv. acetic acid, t 5 min)?
**A.** 2%

**Q.** And the “O2 evolution V(O2) (Vmax(O2)*100%)” value (solv. acetic acid, t 10 min)?
**A.** 4%

**Q.** What about the “O2 evolution V(O2) (Vmax(O2)*100%)” value (solv. acetic acid, t 15 min) of the same molecule?
**A.** 4%

**Q.** What about the “O2 evolution V(O2) (Vmax(O2)*100%)” value (solv. acetic acid, t 20 min) of the same molecule?
**A.** 4%

**Q.** What about the “O2 evolution V(O2) (Vmax(O2)*100%)” value (solv. acetic acid, t 25 min) of the same molecule?
**A.** 4%

**Q.** And the “O2 evolution V(O2) (Vmax(O2)*100%)” value (solv. acetic acid, t 30 min)?
**A.** 4%

**Q.** What about the “O2 evolution V(O2) (Vmax(O2)*100%)” value (solv. acetic acid, t 35 min) of the same molecule?
**A.** 4%

**Q.** What about the “O2 evolution V(O2) (Vmax(O2)*100%)” value (solv. acetic acid, t 40 min) of the same molecule?
**A.** 4%

**Q.** What about the “O2 evolution V(O2) (Vmax(O2)*100%)” value (solv. acetone, t 1 min) of the same molecule?
**A.** 10%

**Q.** And the “O2 evolution V(O2) (Vmax(O2)*100%)” value (solv. acetone, t 2 min)?
**A.** 20%

**Q.** What about the “O2 evolution V(O2) (Vmax(O2)*100%)” value (solv. acetone, t 5 min) of the same molecule?
**A.** 29%

**Q.** What about the “O2 evolution V(O2) (Vmax(O2)*100%)” value (solv. acetone, t 10 min) of the same molecule?
**A.** 29%

**Q.** And the “O2 evolution V(O2) (Vmax(O2)*100%)” value (solv. acetone, t 15 min)?
**A.** 29%

**Q.** And the “O2 evolution V(O2) (Vmax(O2)*100%)” value (solv. acetone, t 20 min)?
**A.** 29%

**Q.** What about the “O2 evolution V(O2) (Vmax(O2)*100%)” value (solv. acetone, t 25 min) of the same molecule?
**A.** 29%

**Q.** And the “O2 evolution V(O2) (Vmax(O2)*100%)” value (solv. acetone, t 30 min)?
**A.** 29%

**Q.** What about the “O2 evolution V(O2) (Vmax(O2)*100%)” value (solv. acetone, t 35 min) of the same molecule?
**A.** 29%

**Q.** What about the “O2 evolution V(O2) (Vmax(O2)*100%)” value (solv. acetone, t 40 min) of the same molecule?
**A.** 29%

**Q.** And the “O2 evolution V(O2) (Vmax(O2)*100%)” value (solv. acetonitrile, t 1 min)?
**A.** 9%

**Q.** What about the “O2 evolution V(O2) (Vmax(O2)*100%)” value (solv. acetonitrile, t 2 min) of the same molecule?
**A.** 18%

**Q.** What about the “O2 evolution V(O2) (Vmax(O2)*100%)” value (solv. acetonitrile, t 5 min) of the same molecule?
**A.** 30%

**Q.** What about the “O2 evolution V(O2) (Vmax(O2)*100%)” value (solv. acetonitrile, t 10 min) of the same molecule?
**A.** 40%

**Q.** And the “O2 evolution V(O2) (Vmax(O2)*100%)” value (solv. acetonitrile, t 15 min)?
**A.** 47%

**Q.** And the “O2 evolution V(O2) (Vmax(O2)*100%)” value (solv. acetonitrile, t 20 min)?
**A.** 51%

**Q.** What about the “O2 evolution V(O2) (Vmax(O2)*100%)” value (solv. acetonitrile, t 25 min) of the same molecule?
**A.** 53%

**Q.** And the “O2 evolution V(O2) (Vmax(O2)*100%)” value (solv. acetonitrile, t 30 min)?
**A.** 53%

**Q.** What about the “O2 evolution V(O2) (Vmax(O2)*100%)” value (solv. acetonitrile, t 35 min) of the same molecule?
**A.** 53%

**Q.** And the “O2 evolution V(O2) (Vmax(O2)*100%)” value (solv. acetonitrile, t 40 min)?
**A.** 53%

**Q.** And the “O2 evolution V(O2) (Vmax(O2)*100%)” value (solv. ethyl acetate, t 1 min)?
**A.** 8%

**Q.** And the “O2 evolution V(O2) (Vmax(O2)*100%)” value (solv. ethyl acetate, t 2 min)?
**A.** 12%

**Q.** What about the “O2 evolution V(O2) (Vmax(O2)*100%)” value (solv. ethyl acetate, t 5 min) of the same molecule?
**A.** 20%

**Q.** And the “O2 evolution V(O2) (Vmax(O2)*100%)” value (solv. ethyl acetate, t 10 min)?
**A.** 29%

**Q.** And the “O2 evolution V(O2) (Vmax(O2)*100%)” value (solv. ethyl acetate, t 15 min)?
**A.** 32%

**Q.** What about the “O2 evolution V(O2) (Vmax(O2)*100%)” value (solv. ethyl acetate, t 20 min) of the same molecule?
**A.** 37%

**Q.** And the “O2 evolution V(O2) (Vmax(O2)*100%)” value (solv. ethyl acetate, t 25 min)?
**A.** 40%

**Q.** And the “O2 evolution V(O2) (Vmax(O2)*100%)” value (solv. ethyl acetate, t 30 min)?
**A.** 42%

**Q.** And the “O2 evolution V(O2) (Vmax(O2)*100%)” value (solv. ethyl acetate, t 35 min)?
**A.** 47%

**Q.** And the “O2 evolution V(O2) (Vmax(O2)*100%)” value (solv. ethyl acetate, t 40 min)?
**A.** 50%

**Q.** And the “O2 evolution V(O2) (Vmax(O2)*100%)” value (solv. methanol, t 1 min)?
**A.** 10%

**Q.** And the “O2 evolution V(O2) (Vmax(O2)*100%)” value (solv. methanol, t 2 min)?
**A.** 19%

**Q.** What about the “O2 evolution V(O2) (Vmax(O2)*100%)” value (solv. methanol, t 5 min) of the same molecule?
**A.** 32%

**Q.** And the “O2 evolution V(O2) (Vmax(O2)*100%)” value (solv. methanol, t 10 min)?
**A.** 43%

**Q.** What about the “O2 evolution V(O2) (Vmax(O2)*100%)” value (solv. methanol, t 15 min) of the same molecule?
**A.** 49%

**Q.** What about the “O2 evolution V(O2) (Vmax(O2)*100%)” value (solv. methanol, t 20 min) of the same molecule?
**A.** 52%

**Q.** What about the “O2 evolution V(O2) (Vmax(O2)*100%)” value (solv. methanol, t 25 min) of the same molecule?
**A.** 53%

**Q.** What about the “O2 evolution V(O2) (Vmax(O2)*100%)” value (solv. methanol, t 30 min) of the same molecule?
**A.** 53%

**Q.** And the “O2 evolution V(O2) (Vmax(O2)*100%)” value (solv. methanol, t 35 min)?
**A.** 53%

**Q.** And the “O2 evolution V(O2) (Vmax(O2)*100%)” value (solv. methanol, t 40 min)?
**A.** 53%

**Q.** What about the “O2 evolution V(O2) (Vmax(O2)*100%)” value (solv. t-butanol, t 1 min) of the same molecule?
**A.** 2%

**Q.** And the “O2 evolution V(O2) (Vmax(O2)*100%)” value (solv. t-butanol, t 2 min)?
**A.** 5%

**Q.** What about the “O2 evolution V(O2) (Vmax(O2)*100%)” value (solv. t-butanol, t 5 min) of the same molecule?
**A.** 10%

**Q.** What about the “O2 evolution V(O2) (Vmax(O2)*100%)” value (solv. t-butanol, t 10 min) of the same molecule?
**A.** 18%

**Q.** What about the “O2 evolution V(O2) (Vmax(O2)*100%)” value (solv. t-butanol, t 15 min) of the same molecule?
**A.** 21%

**Q.** What about the “O2 evolution V(O2) (Vmax(O2)*100%)” value (solv. t-butanol, t 20 min) of the same molecule?
**A.** 23%

**Q.** What about the “O2 evolution V(O2) (Vmax(O2)*100%)” value (solv. t-butanol, t 25 min) of the same molecule?
**A.** 25%

**Q.** And the “O2 evolution V(O2) (Vmax(O2)*100%)” value (solv. t-butanol, t 30 min)?
**A.** 25%

**Q.** And the “O2 evolution V(O2) (Vmax(O2)*100%)” value (solv. t-butanol, t 35 min)?
**A.** 25%

**Q.** What about the “O2 evolution V(O2) (Vmax(O2)*100%)” value (solv. t-butanol, t 40 min) of the same molecule?
**A.** 25%

**Q.** And the “O2 evolution V(O2) (Vmax(O2)*100%)” value (solv. water, t 1 min)?
**A.** 9%

**Q.** And the “O2 evolution V(O2) (Vmax(O2)*100%)” value (solv. water, t 2 min)?
**A.** 17%

**Q.** What about the “O2 evolution V(O2) (Vmax(O2)*100%)” value (solv. water, t 5 min) of the same molecule?
**A.** 30%

**Q.** What about the “O2 evolution V(O2) (Vmax(O2)*100%)” value (solv. water, t 10 min) of the same molecule?
**A.** 40%

**Q.** And the “O2 evolution V(O2) (Vmax(O2)*100%)” value (solv. water, t 15 min)?
**A.** 48%

**Q.** And the “O2 evolution V(O2) (Vmax(O2)*100%)” value (solv. water, t 20 min)?
**A.** 51%

**Q.** And the “O2 evolution V(O2) (Vmax(O2)*100%)” value (solv. water, t 25 min)?
**A.** 55%

**Q.** What about the “O2 evolution V(O2) (Vmax(O2)*100%)” value (solv. water, t 30 min) of the same molecule?
**A.** 55%

**Q.** And the “O2 evolution V(O2) (Vmax(O2)*100%)” value (solv. water, t 35 min)?
**A.** 55%

**Q.** What about the “O2 evolution V(O2) (Vmax(O2)*100%)” value (solv. water, t 40 min) of the same molecule?
**A.** 55%

— patent US6677466B1, “Method for stabilizing hydrogen peroxide” (DSM Fine Chemicals Austria NFG GmbH & Co KG, priority 1999, dated 2004)
